Source: patent publication EP3046573B1, “AMYLIN ANALOGUES” (Zealand Pharma A/S, priority 2013, dated 2015)
Numbered stars: 1 amine (or outer) side, 2 acyl side, 3 side chain; on linkers, the order of the positions; unused ones are H or OH. Bridge positions count the residues as written; N and C are the ends. Square brackets hold non-standard residues; d marks the D form. Peptide text beside a SMILES is read from it. * marks the point of attachment. C20 diacid = O=C(O)CCCCCCCCCCCCCCCCCCC(=O)*; γGlu = O=C(O)[C@H](CCC(=O)[*:2])N[*:1]; Hyp = O=C(O)[C@@H]1C[C@@H](O)CN1; NMeI = CC[C@H](C)[C@H](NC)C(=O)O; Sar = CNCC(=O)O

Key:
[1] = Pharmacokinetic (PK) profiling in rats; format: in vivo; conditions: male, Sprague Dawley, rat, plasma, single sc bolus, 100 nmol/kg (18, NN96), 20 nmol/kg (72, 76), 30 nmol/kg (73, 82, 118, 162, 166, 172); for CL/F: apparent clearance; for half-life: terminal elimination half-life, read-out: t½ (converted)
Description: Sprague Dawley male rats were given a single subcutaneous (sc) bolus of each peptide to be tested at doses as specified below..
Study A: Following the administration of a 100 nmol/kg dose of a test peptide of the invention (Compound 18) and a comparison pramlintide analogue NN96 (see Example 5, above), respectively, blood samples were drawn from the tail vein at 0.5, 3, 8, 15, 36, 60 and 81 hours post-dosing. 4 rats were used (2 rats per compound). The rats were euthanized immediately after the last blood sampling by overdose of O2/CO2.
Study B: 20 nmol/kg doses of Compound 72 and Compound 76, respectively, of the invention were administered. Blood samples were drawn by sublingual bleeding prior to dosing and at 2, 6, 12, 24, 48, 72 and 96 hours after dosing. 4 rats were used (2 rats per compound). The rats were euthanized immediately after the last blood sampling by overdose of O2/CO2.
Study C: 30 nmol/kg doses of Compound 73, Compound 82 and Compound 118, respectively, of the invention were administered. Blood samples were drawn from the tail vein prior to dosing and at 24, 48, 72 and 96 hours after dosing. Blood samples were taken from two rats at each time point, and only 2 blood samples were drawn from each rat, i.e. 8 rats were used for each compound. The rats were euthanized immediately after the last blood sampling by concussion and cervical dislocation.
Study D: 30 nmol/kg doses of Compound 162, Compound 166 and Compound 172 were administered. Blood samples were drawn from the tail vein prior to dosing and at 24, 48, 72, 96 and 168 hours after dosing. Blood samples were taken from two rats at each time point, and only 2 blood samples were drawn from each rat, i.e. 10 rats were used for each compound. The rats were euthanized immediately after the last blood sampling by concussion and cervical dislocation.
The dosing vehicle used for each test peptide was a mannitol-containing histidine buffer (pH 7.0). Plasma samples were analyzed after precipitation with ethanol by liquid chromatography mass spectrometry (LC-MS/MS). Mean plasma concentrations were used for calculation of the pharmacokinetic parameters using the non-compartmental approach in Phoenix WinNonlin 6.3.
Plasma terminal elimination half-life (t½) was determined as In(2)/λz, where λz is the magnitude of the slope of the log linear regression of the log concentration versus time profile during the terminal phase. Apparent clearance (CL/F) was determined as dose/AUCinf (sc), where AUCinf is the area under the plasma concentration vs. time curve extrapolated to infinity (AUCinf = AUClast + Clast/λz, where Clast is the last observed plasma concentration).

[2] = Assessment of chemical stability: normalized purity by RP-HPLC after incubation at 40 °C; format: physicochemical; conditions: normalized purity (T=0 set to 100), 0.2 mg/ml
Method in brief: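 Peptides at 0.2 mg/ml in water adjusted to pH 4, 7.5 or 9, held at 40 °C for 7 days. Purity by RP-HPLC (C8/ammonium formate or C18/TFA gradients), UV 220 nm, as main-peak area-%; normalized to T=0 set as 100 for each pH.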

[3] = Assessment of physical stability: fibril formation detected with Thioflavin T (ThT), lag-time; format: physicochemical; conditions: 1 mg/ml peptide, 40 µM ThT, FND = Fibrillation not detected; for Fibrillation lag time (hours) pH 4.0 (Ac): 50 mM acetate buffer pH 4.0, 96 hours at 40°C; for Fibrillation lag time (hours) pH 7.0 (His): 50 mM histidine buffer pH 7.0, 96 hours at 40°C; for Fibrillation lag time (hours) pH 7.0 (Ph): 50 mM phosphate buffer pH 7.0, 96 hours at 40°C
Method in brief: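 Test peptide at 1 mg/ml with 40 µM ThT in 50 mM phosphate (pH 7.0), 50 mM histidine (pH 7.0) or 50 mM acetate (pH 4.0), in triplicate, 40° C. for 96 h. Fluorescence read every 10 min after 300 s agitation. Lag-time (h) taken as intersection of linear fits to initial stable and growth phases.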

[4] = system: Sprague Dawley (SD) rats; assay: Acute food intake and body weight in normal Sprague Dawley rats; format: in vivo; conditions: vehicle-corrected, dose 30 nmol/kg sc, once; for Body weight loss (%) after 96 hours: mean ± SEM, n = 8
Method in brief: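 Normal male-unspecified SD rats, n = 8 per group, given a single s.c. peptide dose of 30 nmol/kg just before dark phase, with vehicle and positive control groups. Food intake recorded at 0, 4, 7, 10, 24, 48, 72 and 96 h; body weight daily; means ± SEM.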

Compound: CC[C@H](C)[C@@H](C(=O)N[C@@H](CC(C)C)C(=O)N[C@H](CO)C(=O)N[C@@H](CO)C(=O)N[C@H](C(=O)N[C@@H](CC(N)=O)C(=O)N[C@H](C(=O)NCC(=O)N[C@@H](CO)C(=O)N[C@@H](CC(N)=O)C(=O)N[C@H](C(=O)N1CCC[C@H]1C(N)=O)[C@@H](C)O)C(C)C)[C@@H](C)O)N(C)C(=O)[C@H](C)NC(=O)CN(C)C(=O)[C@@H](Cc1ccccc1)NC(=O)[C@H](CC(N)=O)NC(=O)[C@H](CC(N)=O)NC(=O)[C@H](CO)NC(=O)[C@H](CO)NC(=O)[C@H](CCCNC(=N)N)NC(=O)[C@H](Cc1c[nH]cn1)NC(=O)[C@H](CC(C)C)NC(=O)[C@H](Cc1ccccc1)NC(=O)[C@H](CCC(=O)O)NC(=O)[C@H](C)NC(=O)[C@H](CC(C)C)NC(=O)[C@H](CCCNC(=N)N)NC(=O)[C@H](CCC(N)=O)NC(=O)[C@@H](NC(=O)[C@H](C)NC(=O)[C@@H]1CSSC[C@H](NC(=O)[C@H](CCCCN)NC(=O)CC[C@H](NC(=O)CCCCCCCCCCCCCCCCCCC(=O)O)C(=O)O)C(=O)N[C@@H](CC(N)=O)C(=O)N[C@@H]([C@@H](C)O)C(=O)N[C@@H](C)C(=O)N[C@@H]([C@@H](C)O)C(=O)N1)[C@@H](C)O [Compound 72, [19CD]-isoGlu-KC()NTATC()ATQRLAEFLHRSSNN-DPhe-Gly(Me)-A-Ile(Me)-L-DSer-STNVGSNTP] ({C20 diacid-γGlu}-KCNTATCATQRLAEFLHRSSNN[dF][Sar]A[NMeI]L[dS]STNVGSNTP-NH2; disulfide 2-7)
- CL/F [1]: 2.7 mL/h/kg
- half-life [1]: 30.9 h
- Chem. stability; 7 days, 40°C pH 4 ([2]; pH 4, 7 days): 90 area-%
- Chem. stability; 7 days, 40°C pH 7.5 ([2]; pH 7.5, 7 days): 81 area-%
- Chem. stability; 7 days, 40°C pH 9 ([2]; pH 9, 7 days): 80 area-%
- Fibrillation lag time (hours) pH 4.0 (Ac) [3]: FND
- Fibrillation lag time (hours) pH 7.0 (His) [3]: FND
- Fibrillation lag time (hours) pH 7.0 (Ph) [3]: FND
- Food intake inhibition (%) after 48 hours [4]: 99%
- Body weight loss (%) after 96 hours [4]: 12 ± 1.2%

Compound: CC[C@H](C)[C@@H](C(=O)N[C@@H](CC(C)C)C(=O)N[C@@H](CO)C(=O)N[C@@H](CO)C(=O)N[C@H](C(=O)N[C@@H](CCC(=O)O)C(=O)N[C@H](C(=O)NCC(=O)N[C@@H](CO)C(=O)N[C@@H](CCC(=O)O)C(=O)N[C@H](C(=O)N1C[C@H](O)C[C@H]1C(N)=O)[C@@H](C)O)C(C)C)[C@@H](C)O)N(C)C(=O)[C@H](C)NC(=O)CN(C)C(=O)[C@H](Cc1ccccc1)NC(=O)[C@H](CO)NC(=O)[C@H](CO)NC(=O)[C@H](CCCNC(=N)N)NC(=O)[C@H](Cc1c[nH]cn1)NC(=O)[C@H](CC(C)C)NC(=O)[C@H](Cc1ccccc1)NC(=O)[C@H](CCC(=O)O)NC(=O)[C@H](C)NC(=O)[C@H](CC(C)C)NC(=O)[C@H](CCCNC(=N)N)NC(=O)[C@H](CCC(=O)O)NC(=O)[C@@H](NC(=O)[C@H](C)NC(=O)[C@@H]1CSSC[C@H](NC(=O)[C@H](CCCNC(=N)N)NC(=O)CC[C@H](NC(=O)CCCCCCCCCCCCCCCCCCC(=O)O)C(=O)O)C(=O)NCC(=O)N[C@@H]([C@@H](C)O)C(=O)N[C@@H](C)C(=O)N[C@@H]([C@@H](C)O)C(=O)N1)[C@@H](C)O [Compound 166, [19CD]-isoGlu-RC()GTATC()ATERLAEFLHRSSF-Gly(Me)-A-Ile(Me)-LSSTEVGSET-Hyp-NH2] ({C20 diacid-γGlu}-RCGTATCATERLAEFLHRSSF[Sar]A[NMeI]LSSTEVGSET[Hyp]-NH2; disulfide 2-7)
- CL/F [1]: 3.79 mL/h/kg
- half-life [1]: 27.9 h
- Fibrillation lag time (hours) pH 4.0 (Ac) [3]: FND
- Fibrillation lag time (hours) pH 7.0 (His) [3]: FND
- Fibrillation lag time (hours) pH 7.0 (Ph) [3]: FND
- Food intake inhibition (%) after 48 hours [4]: 99%
- Body weight loss (%) after 96 hours [4]: 12 ± 1.6%

Compound: CC[C@H](C)[C@@H](C(=O)N[C@@H](CC(C)C)C(=O)N[C@@H](CO)C(=O)N[C@@H](CO)C(=O)N[C@H](C(=O)N[C@@H](CC(=O)O)C(=O)N[C@H](C(=O)NCC(=O)N[C@@H](CO)C(=O)N[C@@H](CC(=O)O)C(=O)N[C@H](C(=O)N1CCC[C@H]1C(N)=O)[C@@H](C)O)C(C)C)[C@@H](C)O)N(C)C(=O)[C@H](C)NC(=O)CN(C)C(=O)[C@H](Cc1ccccc1)NC(=O)[C@H](CO)NC(=O)[C@H](CO)NC(=O)[C@H](CCCNC(=N)N)NC(=O)[C@H](Cc1c[nH]cn1)NC(=O)[C@H](CC(C)C)NC(=O)[C@H](Cc1ccccc1)NC(=O)[C@H](CCC(=O)O)NC(=O)[C@H](C)NC(=O)[C@H](CC(C)C)NC(=O)[C@H](CCCNC(=N)N)NC(=O)[C@H](CC(=O)O)NC(=O)[C@@H](NC(=O)[C@H](C)NC(=O)[C@@H]1CSSC[C@H](NC(=O)[C@H](CCCNC(=N)N)NC(=O)CC[C@H](NC(=O)CCCCCCCCCCCCCCCCCCC(=O)O)C(=O)O)C(=O)N2CCC[C@H]2C(=O)N[C@@H]([C@@H](C)O)C(=O)N[C@@H](C)C(=O)N[C@@H]([C@@H](C)O)C(=O)N1)[C@@H](C)O [Compound 172, [19CD]-isoGlu-RC()PTATC()ATDRLAEFLHRSSF-Gly(Me)-A-Ile(Me)-LSSTDVGSDTP-NH2] ({C20 diacid-γGlu}-RCPTATCATDRLAEFLHRSSF[Sar]A[NMeI]LSSTDVGSDTP-NH2; disulfide 2-7)
- CL/F [1]: 9.16 mL/h/kg
- half-life [1]: 24.4 h
- Fibrillation lag time (hours) pH 4.0 (Ac) [3]: FND
- Fibrillation lag time (hours) pH 7.0 (His) [3]: FND
- Fibrillation lag time (hours) pH 7.0 (Ph) [3]: FND
- Food intake inhibition (%) after 48 hours [4]: 99%
- Body weight loss (%) after 96 hours [4]: 13 ± 1.1%
